IC50, Activity and Time data for 26 compounds are collected here from ChEMBL document CHEMBL3826872, “Synthesis of benzimidazole based thiadiazole and carbohydrazide conjugates as glycogen synthase kinase-3β inhibitors with anti-depressant activity” (Bioorg Med Chem Lett, 2016).

Activity calls are given as the source filed them. The rule behind the calls is not given here.

The target in assay [1] is Glycogen synthase kinase-3 beta (Homo sapiens, UniProt P49841). Briefly: Inhibition of recombinant human N-terminal His-tagged GSK-3beta expressed in Escherichia coli using glycogen synthase-2 as substrate and ATP measured after 30 mins by Kinase-Glo luminescent kinase assay.
Chain of Glycogen synthase kinase-3 beta (P49841 whole entry): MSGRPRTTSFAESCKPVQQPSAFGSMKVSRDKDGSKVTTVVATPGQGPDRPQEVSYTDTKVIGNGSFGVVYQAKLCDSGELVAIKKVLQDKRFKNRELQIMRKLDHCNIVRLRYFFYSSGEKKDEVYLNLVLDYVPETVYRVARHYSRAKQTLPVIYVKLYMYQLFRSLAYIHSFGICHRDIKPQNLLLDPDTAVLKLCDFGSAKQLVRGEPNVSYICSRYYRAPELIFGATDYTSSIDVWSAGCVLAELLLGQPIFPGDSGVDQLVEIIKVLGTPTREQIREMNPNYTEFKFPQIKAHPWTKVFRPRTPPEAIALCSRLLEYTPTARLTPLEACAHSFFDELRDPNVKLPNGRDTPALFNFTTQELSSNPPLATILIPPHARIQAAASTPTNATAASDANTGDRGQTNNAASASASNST
For assay [2], the system named is Mus musculus. Briefly: Antidepressant activity in Swiss albino mouse assessed as reduction in duration of immobility at 50 mg/kg, po dosed 1 hr before test measured after 6 mins by forced swim test relative to control. The class given is functional, organism-based.
The test system of assay [3] is Mus musculus. Nature of the assay: Antidepressant activity in Swiss albino mouse assessed as duration of immobility at 50 mg/kg, po dosed 1 hr before test measured after 6 mins by tail suspension test (reference value: 183 sec).

For the compound `Cc1nc2ccccc2n1CC(=O)NNC(=O)Cc1ccccc1`, the IC50 in assay [1] stood at 105 nM.
Consider `Cc1nc2ccccc2n1Cc1nnc(NC2CCCCC2)s1`, for which, in assay [1], the IC50 came out at 406 nM.
The same measure, in the same setting: then `COc1ccccc1Nc1nnc(Cn2c(C)nc3ccccc32)s1`, with 184 nM.
For `Cc1nc2ccccc2n1CC(=O)NNC(=O)C(=O)c1c[nH]c2ccccc12`, in assay [1], the IC50 was 72 nM. Further, the result in assay [2] was Active. In addition, the Time in assay [3] is 105 s.
Turning to `Cc1nc2ccccc2n1CC(=O)NNC(=O)c1c[nH]c2ccccc12`, the IC50 in assay [1] was determined as 148 nM.
For `Cc1ccccc1CC(=O)NNC(=O)Cn1c(C)nc2ccccc21`, the IC50 in assay [1] was 92 nM. Besides, the Time in assay [3] stood at 168 s.
Take `Cc1nc2ccccc2n1CC(=O)NNC(=O)c1ccc[nH]1`: in assay [1], the IC50 amounted to 124 nM.
As to `CCCCNc1nnc(Cn2c(C)nc3ccccc32)s1`, the IC50 in assay [1] turned out to be 582 nM.
For `Cc1nc2ccccc2n1CC(=O)NNC(=O)Cc1ccc(Cl)cc1`, the IC50 in assay [1] was found to be 131 nM.
Regarding `Cc1nc2ccccc2n1Cc1nnc(Nc2ccccc2F)s1`, the IC50 in assay [1] turned out to be 76 nM. Also, the outcome in assay [2] was Active. Moreover, the Time in assay [3] stood at 120 s.
For the compound `Cc1nc2ccccc2n1CC(=O)NNC(=O)CCC(=O)c1ccc(Oc2ccccc2)cc1`, the IC50 in assay [1] amounted to 80 nM. Further, the result in assay [2] was Active. For the same compound, in assay [3], the Time worked out at 135 s.
As to `Cc1nc2ccccc2n1CC(=O)NNC(=O)Cc1cccc2ccccc12`, the IC50 in assay [1] stood at 157 nM.
In the case of `CNCCC(Oc1ccc(C(F)(F)F)cc1)c1ccccc1` (centres undefined) [FLUOXETINE], the Time in assay [3] came out at 153 s.
With `Cc1nc2ccccc2n1Cc1nnc(Nc2ccc(F)cc2)s1`, in assay [1], the IC50 amounted to 134 nM.
For `Cc1nc2ccccc2n1Cc1nnc(Nc2ccc(Br)cc2)s1`, the IC50 in assay [1] stood at 173 nM.
Take `Cc1nc2ccccc2n1Cc1nnc(Nc2ccc(Cl)cc2)s1`: the IC50 in assay [1] is 145 nM.
With `Cc1nc2ccccc2n1Cc1nnc(Nc2ccccc2Br)s1`, the IC50 in assay [1] was found to be 190 nM.
Turning to `COc1ccc(C(=O)CCC(=O)NNC(=O)Cn2c(C)nc3ccccc32)cc1`, the IC50 in assay [1] stood at 561 nM.
In the case of `Cc1nc2ccccc2n1Cc1nnc(Nc2ccccc2Cl)s1`, in assay [1], the IC50 was determined as 122 nM.
In the case of `CCOc1ccc(Nc2nnc(Cn3c(C)nc4ccccc43)s2)cc1`, the IC50 in assay [1] worked out at 293 nM.
In the case of `Cc1nc2ccccc2n1CC(=O)NNC(=O)Cc1ccc([N+](=O)[O-])cc1`, the IC50 in assay [1] amounted to 205 nM.
On the same count and under the same terms, the same measure for `COc1ccc(Nc2nnc(Cn3c(C)nc4ccccc43)s2)cc1`: 151 nM.
Take `COc1ccc(CC(=O)NNC(=O)Cn2c(C)nc3ccccc32)cc1`: the IC50 in assay [1] is 379 nM.
For `Cc1nc2ccccc2n1CC(=O)NNC(=O)Cc1cc2ccccc2[nH]1`, in assay [1], the IC50 came to 135 nM.
For `Cc1nc2ccccc2n1Cc1nnc(Nc2ccc([N+](=O)[O-])cc2)s1`, the IC50 in assay [1] is 107 nM. The Time in assay [3] came out at 174 s.
`Cc1nc2ccccc2n1Cc1nnc(Nc2ccccc2)s1`: the IC50 in assay [1] stood at 157 nM.
